Measured values reported in patent EP2252154B1, “METHOD FOR MINIMIZING THE CYTOTOXICITY OF THE EFFECTIVE AGENT IN A COMPOSITION THAT IS ADMINISTERED TO A MAMMAL OR GETS INTO CONTACT WITH A MAMMAL” (Oy Granula AB LTD, priority 2008, dated 2009).
In brackets after ≈: the same amount, converted by molar mass. Read-outs that look alike come from different tables or passages of the source.

How the values were obtained:
[1] = pure polyphenols; footnote 1: Willför et al., J. Agric. Food. Chem., 51, 7600-7606 (2003); cited from earlier work
[2] = pure polyphenols; footnote 1: Willför et al., J. Agric. Food. Chem, 51. 26 (2003); cited from earlier work
[3] = Antioxidative capacity: inhibition of the peroxidation of lipids; assay type: biochemical; conditions: pure polyphenols isolated from wood materials
[4] = Peroxide radicals capturing capacity; assay type: biochemical; conditions: pure polyphenols isolated from wood material; per gram
[5] = tested on: human keratinocyte cells
Protocol: The composition of the individual compounds included in the compound mixture contained by the samples was in accordance with Table 3B. The cytotoxicity of the sample extracts and powders for human keratinocyte cells was measured. The employed measure of cytotoxicity was the total protein quantity created by the samples, when the samples were incubated together with human keratinocyte cells for a certain incubation time (24 h). For each sample, there was searched a limit value (EC20), by which 20% of the cultivated cells died.

In the case of `COc1cc(C[C@H]2C(=O)OC[C@@H]2[C@H](O)c2ccc(O)c(OC)c2)ccc1O` [Hydroxymatairesinol], the capturing capacity [1] is listed as 5.6 mmol/g and the “EC50” value [2] is listed as 0.058 mg/L (≈ 0.155 µM).

With `Oc1ccc([C@H]2Oc3c(ccc(O)c3O)[C@@H](O)[C@H]2O)cc1O` [Melacasidine] the “EC50” value [3] was 0.036 mg/L (≈ 0.118 µM) and the capturing capacity [4] was 20 mmol/g.

With `Oc1ccc([C@H]2Oc3c(ccc(O)c3O)[C@@H](O)[C@H]2O)cc1` [Teracasidine] the “EC50” value [3] was 0.05 mg/L (≈ 0.172 µM) and the capturing capacity [4] was 7.8 mmol/g.

In the case of `Oc1cc(O)cc(/C=C/c2ccccc2)c1` [Pinosylvin], the “EC50” value [3] is reported as 0.05 mg/L (≈ 0.236 µM) and the capturing capacity [4] is reported as 0.78 mmol/g.

With `O=C1C[C@@H](c2ccccc2)Oc2cc(O)cc(O)c21` [Pinosembrin] the “EC50” value [3] was 1.135 mg/L (≈ 4.43 µM) and the capturing capacity [4] was 0.49 mmol/g.

For Pinoresinol, the “EC50” value [3] was 0.02 mg/L and the capturing capacity [4] was 7.8 mmol/g.

For `O=C1c2c(O)cc(O)cc2O[C@H](c2ccc(O)cc2)[C@H]1O` [Dihydrokaempferol], the “EC50” value [3] was 0.488 mg/L (≈ 1.69 µM) and the capturing capacity [4] was 0.78 mmol/g.

For `COc1cc(C[C@@H](CO)[C@H](CO)Cc2ccc(O)c(OC)c2)ccc1O` [Secoisolariciresinol], the capturing capacity [1] is given as 8.5 mmol/g and the “EC50” value [2] is given as 0.037 mg/L (≈ 0.102 µM).

For `COc1cc(C[C@H]2COC(=O)[C@@H]2Cc2ccc(O)c(OC)c2)ccc1O` [Matairesinol], the capturing capacity [1] is listed as 2.9 mmol/g and the “EC50” value [2] is listed as 0.099 mg/L (≈ 0.276 µM).

In the case of `COc1cc(C[C@H]2CO[C@H](c3ccc(O)c(OC)c3)[C@H]2CO)ccc1O` [Lariciresinol], the capturing capacity [1] is given as 2.7 mmol/g and the “EC50” value [2] is given as 0.126 mg/L (≈ 0.35 µM).

In the case of `O=C1c2c(O)cc(O)cc2O[C@H](c2ccc(O)c(O)c2)[C@H]1O` [Taxifolin], the capturing capacity [1] is given as 16 mmol/g and the “EC50” value [2] is given as 0.046 mg/L (≈ 0.151 µM).

In the case of `COc1cc(CC2COC(=O)C2(O)Cc2ccc(O)c(OC)c2)ccc1O` (stereo not shown) [Nortrachelogenin], the capturing capacity [1] is listed as 5.9 mmol/g and the “EC50” value [2] is listed as 0.053 mg/L (≈ 0.142 µM).

In the case of `COc1cc([C@H]2c3cc(O)c(OC)cc3C[C@@H](CO)[C@@H]2CO)ccc1O` [Cyclolariciresinol], the “EC50” value [3] is reported as 0.017 mg/L (≈ 0.0472 µM) and the capturing capacity [4] is reported as 12 mmol/g.

For `Cc1cc(C(C)(C)C)c(O)c(C(C)(C)C)c1` [BTH, butylated hydroxytoluene], the “times more cytotoxic with respect to HMR extract mixtures” value ([5]; from Table 1) was 50-100 times and the “EC20 ppm 24 h” value ([5]; human, 24 h) was 5.50 ppm.
